Reference: patent publication US5756092A, “Use, in a composition, as cyclooxygenase activator and/or stabilizer, of at least one pyrimidine derivative sustituted at the 6th position and a cyclooxygenase substrate” (SocieteL'Oreal S.A., priority 1995, dated 1998)
Values belong to the compound of their own block, whether it stands above or below them.

How the values were obtained:
cyclooxygenase = details: literature; cited from earlier work
lipoxygenase = details: literature (Bedford et al., 1983); cited from earlier work
[1] = biological target: T1, prostaglandin-endoperoxide synthase (PGHS) (Ovis aries, UniProt P05979); assay: Measurement of the activating and/or stabilizing power at a given concentration (oxygen consumption, Clark electrode); assay type: biochemical, sheep; details: 0.5 mM; 37° C.; initial rate; % relative to control
T1 construct: isolated from sheep seminal gland; purchased Cayman Chemical 60100; host or cells: sheep seminal gland
T1 sequence (P05979 25-600): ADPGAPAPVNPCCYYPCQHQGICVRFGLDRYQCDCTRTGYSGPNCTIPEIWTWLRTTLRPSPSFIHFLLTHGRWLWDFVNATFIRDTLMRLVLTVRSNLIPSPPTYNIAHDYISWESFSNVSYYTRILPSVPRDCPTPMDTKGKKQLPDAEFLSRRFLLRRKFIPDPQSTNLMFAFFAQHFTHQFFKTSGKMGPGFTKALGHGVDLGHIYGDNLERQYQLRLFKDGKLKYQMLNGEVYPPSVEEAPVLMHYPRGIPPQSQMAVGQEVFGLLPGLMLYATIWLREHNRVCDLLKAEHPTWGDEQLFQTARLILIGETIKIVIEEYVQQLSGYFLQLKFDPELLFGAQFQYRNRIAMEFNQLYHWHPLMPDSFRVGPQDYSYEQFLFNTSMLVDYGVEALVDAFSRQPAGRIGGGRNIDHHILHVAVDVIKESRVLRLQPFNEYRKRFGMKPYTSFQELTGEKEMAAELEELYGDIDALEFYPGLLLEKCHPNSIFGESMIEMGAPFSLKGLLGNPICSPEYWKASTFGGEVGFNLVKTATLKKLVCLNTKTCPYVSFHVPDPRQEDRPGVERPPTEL
Excerpt: As indicated above, the enzymatic activity of a cyclooxygenase is indicated by a consumption of oxygen. It is therefore possible to monitor the course of the reaction in progress by measuring the consumption of oxygen in the reaction medium and thus to evaluate the activity of the enzyme by measuring the consumption of oxygen.
At time T=0 of the process, a buffered solution containing a cyclooxygenase is introduced into a measuring tank and then the whole is allowed to stabilize for at least one minute.
At time T=1 minute, an appropriate quantity of enzyme substrate is added and the oxygen consumption of the reaction is recorded.
This recording makes it possible to deduce the initial rate of the reaction and the period during which the initial rate of the reaction is maintained.
When a substance potentially having an activity on the cyclooxygenase is tested, the variation of the slope in a positive or negative direction relative to the results obtained with the enzyme alone reflects either the activation or the inhibition of the activity of the enzyme.
Measurement of the activating and/or stabilizing power of pyrimidine derivatives substituted at the 6th position, at a given concentration.
The quantity of oxygen necessary for the oxidation of arachidonic acid is measured by the cyclooxygenase activity of prostaglandin-endoperoxide synthase, in the presence or absence of the derivative to be tested.
The measurements of the consumption of oxygen are performed with a Clark electrode connected to a YSI 5300 oxygen meter of the Yellow Spring Instruments trademark.
These measurements are performed in an open chamber, with constant stirring, at a temperature of 37° C.
If a graph recorder is used, the measurement of the oxygen consumption takes the form of a curve whose maximum slope makes it possible to deduce the initial rate of the reaction, and from which it is possible to calculate the period during which the initial rate of the reaction is maintained.
The measurement of the activity of the derivatives to be tested is performed under the same conditions, by adding, to the reaction medium, the derivative to be tested. It is the variation of the slope and the variation of the period during which the maximum rate is maintained which make it possible to evaluate the activity of the derivative to be tested towards cyclooxygenase.
A solution of 0.1M TRIS and 5 mM EDTA at pH=8.00 (TE solution) is prepared.
The substrate is prepared in the form of a stock solution of potassium arachidonate according to the manufacturer's procedure (Interchim, France).
The solution thus obtained has an arachidonic acid titre of 46 mM. It can be stored at 4° C. for 24 hours.
The derivatives to be tested are prepared in the form of a stock solution with a titre of 5 mM in a water/alcohol mixture (80/20) and tested with the same batch of enzyme.
At t=0, there are introduced into the measuring chamber 380 μl of TEA buffer preheated to 37° C. that are allowed to equilibrate for at least one minute.
At t=1, 300 units of enzyme (PGHS) are introduced.
The recording is initiated and the whole is again allowed to stabilize for one minute. The recording obtained gives the base level of the reaction.
After an additional minute, 10 μl of substrate are introduced and the consumption of oxygen is recorded for 2 to 3 minutes.
The initial rate of the reaction and the period during which this rate is maintained are thus determined.
The experimental conditions are identical to those above, except that the TEA buffer preheated to 37° C. is replaced by an identical buffer containing the derivative to be tested at a concentration of 0.5 mM.

hair growth = details: U.S. Pat. No. 4,596,812; cited from earlier work
[2] = U.S. Pat. No. 4,596,812; cited from earlier work
[3] = biological target: T2, prostaglandin-endoperoxide synthase (Ovis aries, UniProt P05979); assay: Calculation of the 50% activating concentration (AC 50) for the activation of prostaglandin-endoperoxide synthase; assay type: biochemical, sheep
T2 construct: isolated from sheep seminal gland
T2 sequence (P05979 25-600): T1 sequence (P05979 25-600)
Procedure: Calculation of the 50% activating concentration (AC 50) of 2,4-diamino-6-piperidinopyrimidine 3-oxide for the activation of prostaglandin-endoperoxide synthase. 2,4-diamino-6-piperidinopyrimidine 3-oxide Activation
By a statistical calculation (log-linear regression, the correlation coefficient being 0.98 and the significance of the binding less than or equal to 0.01), an AC 50 is found for 40 μM for 2,4-diamino-6-piperidinopyrimidine 3-oxide.

Structure (SMILES): O=C1C(O)=C(O)C(=O)c2cc(Cl)ccc21 [6-chloro-2,3-dihydroxy-1,4-naphthoquinone]
- effect on cyclooxygenase activity (cyclooxygenase): cyclooxygenase stimulating agent
- effect on lipoxygenase (lipoxygenase): lipoxygenase inhibitor

Structure (SMILES): CCCNc1cc(N2CCCCC2)nc(N)[n+]1[O-] [2-amino-4-propylamino-6-piperidinopyrimidine 3-oxide]
- activation at 500 µM [1]: 173%

Structure (SMILES): CCCCOc1cc(N)[n+]([O-])c(N)n1 [2,4-diamino-6-butyloxypyrimidine 3-oxide]
- activation at 500 µM [1]: 13%

Structure (SMILES): COc1ccc2c(c1)c(CC(=O)O)c(C)n2C(=O)c1ccc(Cl)cc1 [Indomethacin, 1-(4-Chlorobenzoyl)-5-methoxy-2-methyl-1H-indole-3-acetic acid]
- activation at 500 µM [1]: -100%

Structure (SMILES): Nc1cc(N2CCCCC2)nc(N)n1 [2,4-diamino-6-piperidinopyrimidine]
- activation at 500 µM [1]: -14%

Structure (SMILES): Nc1cc(N2CCCCC2)nc(N)[n+]1[O-] [2,4-diamino-6-piperidinopyrimidine 3-oxide]
- activation at 500 µM [1]: 58%
- capacity to promote hair growth (hair growth): capacity to promote hair growth
- antihypertensive effects [2]: antihypertensive effects
- activation at 15.6 µM ([3]; 15.6 μM, read-out: Activation (% of control)): 23%
- activation at 62.5 µM ([3]; 62.5 μM, read-out: Activation (% of control)): 61%
- activation at 125 µM ([3]; 125 μM, read-out: Activation (% of control)): 90%
- activation at 250 µM ([3]; 250 μM, read-out: Activation (% of control)): 102%
- activation at 500 µM ([3]; 500 μM, read-out: Activation (% of control)): 146%
- activation at 1000 µM ([3]; 1000 μM, read-out: Activation (% of control)): 181%
- AC50 ([3]; log-linear regression, correlation coefficient 0.98): 40 µM

Other lines, results leading:

- activation at 500 µM [1]: 171%
Structure (SMILES): CCCNc1cc(N(C)C)nc(NCCC)[n+]1[O-] [2,4-dipropylamino-6-dimethylaminopyrimidine 3-oxide]

- activation at 500 µM [1]: 24%
Structure (SMILES): Cc1nc(N2CCCCC2)cc(N)[n+]1[O-] [2-methyl-4-amino-6-piperidinopyrimidine 3-oxide]

- activation at 500 µM [1]: 117%
Structure (SMILES): CCCNc1cc(N(C)C)nc(N)[n+]1[O-] [2-amino-4-propylamino-6-dimethylaminopyrimidine 3-oxide]
